“Also recorded” adds a separate entry of the source. Where two headings read alike, the source gives them in different places.
Tests used:
[1] = Brain and plasma concentrations in mice after intraperitoneal administration (LC-MS-MS), non-compartmental analysis; assay type: in vivo; conditions: for k el: read-out: Lambda_z (converted)
[2] = Plasma binding (unbound fraction by ultracentrifugation); assay type: in vitro ADME; conditions: 5 μM drug, mean, n = 3
Outline: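 Plasma was spiked with 5 μM drug and ultracentrifuged at 600,000 g for 5 h at 37 °C. The middle water layer and the original spiked matrix were matrix-matched, extracted with acetonitrile and measured by LC-MS-MS. Fraction unbound is the water-layer to spiked-matrix concentration ratio, corrected for dilution.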

P-gp (human MDR1) = target: T1, P-gp (human MDR1) (Homo sapiens, UniProt P08183); test: LLC-PK1-MDR1 cell permeation and efflux; assay type: in vitro ADME
T1 construct: expressed in transfected cells; host or cells: LLC-PK1 (pig kidney epithelial cells) transfected with human MDR1 at Amgen

human P-gp = target: T2, human P-gp (Homo sapiens, UniProt P08183); test: LLC-PK1-MDR1 cell permeation and efflux; assay type: in vitro ADME; conditions: cells expressing human P-gp
T2 construct: expressed in transfected cells; host or cells: LLC-PK1 (pig kidney epithelial cells) transfected with human MDR1 at Amgen

mice = test: Fatalities and behavioral effects after i.p. administration; conditions: 100 mg kg^-1
Method: Experiments were performed between 10 am and 6 pm. Mice were not used in other experiments, or exposed to other drugs, before testing began.
Doses are reported by weight of the specified salt. Intraperitoneal injections were administered in distilled water vehicle (10 mL kg^-1). Body mass was measured to ±0.1 g. Some values were inadvertently measured on a low-precision balance (± 2.5 g); these timepoints were replicated at ±0.1 g.

[3] = male, Swiss-Webster, mouse, ip, brain NCA, 10 mg/kg i.p.
[4] = male, Swiss-Webster, mouse, ip, plasma NCA, 10 mg/kg i.p.
[5] = male, Swiss-Webster, mouse, plasma, intraperitoneal, 10 mg/kg, 10 mg/kg, read-out: Conc (plasma, NCA input)
[6] = male, Swiss-Webster, mouse, plasma, ip, 10 mg/kg, 10 mg/kg i.p., read-out: mean (plasma)
[7] = male, Swiss-Webster, mouse, plasma, ip, 10 mg/kg, 10 mg/kg i.p., individual mice, read-out: [drug],plasma (free base equivalent)

T1 sequence (P08183 whole entry): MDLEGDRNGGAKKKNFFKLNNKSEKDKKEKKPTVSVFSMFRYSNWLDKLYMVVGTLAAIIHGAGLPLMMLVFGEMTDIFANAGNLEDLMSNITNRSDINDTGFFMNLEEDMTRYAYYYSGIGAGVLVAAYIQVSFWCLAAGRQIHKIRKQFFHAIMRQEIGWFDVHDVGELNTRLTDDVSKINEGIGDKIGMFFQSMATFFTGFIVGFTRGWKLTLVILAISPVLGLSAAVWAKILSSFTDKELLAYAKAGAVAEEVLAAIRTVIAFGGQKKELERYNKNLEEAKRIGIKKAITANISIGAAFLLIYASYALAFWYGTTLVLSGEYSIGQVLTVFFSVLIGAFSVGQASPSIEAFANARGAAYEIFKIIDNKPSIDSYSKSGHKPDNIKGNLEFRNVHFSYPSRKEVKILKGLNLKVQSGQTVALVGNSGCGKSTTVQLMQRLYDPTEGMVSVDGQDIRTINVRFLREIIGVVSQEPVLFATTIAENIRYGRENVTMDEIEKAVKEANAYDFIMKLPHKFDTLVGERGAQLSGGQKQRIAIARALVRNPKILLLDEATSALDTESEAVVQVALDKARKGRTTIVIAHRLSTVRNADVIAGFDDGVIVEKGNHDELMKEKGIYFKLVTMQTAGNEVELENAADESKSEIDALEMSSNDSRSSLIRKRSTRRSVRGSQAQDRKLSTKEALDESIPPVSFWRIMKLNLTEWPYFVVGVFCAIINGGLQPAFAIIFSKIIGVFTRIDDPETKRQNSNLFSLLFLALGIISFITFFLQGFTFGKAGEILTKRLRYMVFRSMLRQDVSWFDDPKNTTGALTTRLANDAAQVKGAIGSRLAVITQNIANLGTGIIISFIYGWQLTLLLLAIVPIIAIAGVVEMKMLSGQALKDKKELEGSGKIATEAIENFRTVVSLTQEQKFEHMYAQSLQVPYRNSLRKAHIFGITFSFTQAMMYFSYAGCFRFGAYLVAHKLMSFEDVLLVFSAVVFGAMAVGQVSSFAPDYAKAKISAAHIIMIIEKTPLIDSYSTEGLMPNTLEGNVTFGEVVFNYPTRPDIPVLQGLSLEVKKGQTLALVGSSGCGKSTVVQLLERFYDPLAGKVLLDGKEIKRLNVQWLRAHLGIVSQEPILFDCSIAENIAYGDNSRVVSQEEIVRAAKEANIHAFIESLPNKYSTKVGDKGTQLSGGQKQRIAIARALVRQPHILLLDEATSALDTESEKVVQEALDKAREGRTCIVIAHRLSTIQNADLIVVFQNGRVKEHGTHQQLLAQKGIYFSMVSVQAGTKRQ
T2 sequence (P08183 whole entry): as above

`CC(C)[C@@H](CN1CC[C@@](C)(c2cccc(O)c2)[C@@H](C)C1)NC(=O)[C@H]1Cc2ccc(O)cc2CN1` [JDTic, (3R)-7-Hydroxy-N-((1S)-1-{[(3R,4R)-4-(3-hydroxyphenyl)-3,4-dimethyl-1-piperidinyl]methyl}-2-methylpropyl)-1,2,3,4-tetrahydro-3-isoquinolinecarboxamide] gave an AUC(0-inf) ([1]; male, Swiss-Webster, mouse, brain, ip, 10 mg/kg, brain, 10 mg kg^-1 i.p., non-compartmental analysis, read-out: AUC 0–∞,brain) of 10300 ng·h/mL, a Tmax ([1]; male, Swiss-Webster, mouse, in vivo, ip, ·2HCl salts, 10 mg kg^-1 i.p., mice) of 30 min and an AUC(0-t) [1, 3] of 4400 ng·h/mL. For the same compound, the Tmax [1, 3] was 30 min, the Cmax ([1]; male, Swiss-Webster, mouse, ip, brain NCA, 10 mg/kg i.p., read-out: Cmax) was 71.1 ng/mL and the k el [1, 3] was 8.75e-07 s⁻¹. For the same compound, the AUC(0-t) [1, 4] was 866 ng·h/mL, the Tmax [1, 4] was 30 min and the k el [1, 4] was 3.75e-05 s⁻¹. For the same compound, the MRT inf ([1]; male, Swiss-Webster, mouse, ip, plasma NCA, 10 mg/kg i.p., read-out: MRT 0-inf_obs) was 258 min, the Cmax ([1]; male, Swiss-Webster, mouse, ip, plasma, 10 mg kg^-1 i.p., mice, read-out: C max,p) was 245 ng/mL and the concentration at 0.5 h [1, 5] was 245 ng/mL. For the same compound, the concentration at 1 h [1, 5] was 154 ng/mL, the concentration at 2 h [1, 5] was 56.9 ng/mL and the concentration at 4 h [1, 5] was 46.6 ng/mL. The concentration at 24 h [1, 5] was 3 ng/mL, the concentration at 0.5 h [1, 6] was 245 ng/mL and the concentration at 1 h [1, 6] was 154 ng/mL. The concentration at 2 h [1, 7] was 42.3 ng/mL, the concentration at 2 h [1, 6] was 57 ng/mL and the concentration at 4 h [1, 6] was 47 ng/mL. The concentration at 24 h [1, 7] was 5 ng/mL, the concentration at 24 h ([1]; male, Swiss-Webster, mouse, plasma, ip, 10 mg/kg, 10 mg/kg i.p., <MRC substituted by MRC/2, read-out: mean (plasma)) was 3 ng/mL and the AUC(0-inf) ([1]; male, Swiss-Webster, mouse, plasma, ip, 10 mg/kg, plasma NCA, 10 mg/kg i.p., read-out: AUC 0-inf_obs) was 888 ng·h/mL. For the same compound, the CL/F ([1]; male, Swiss-Webster, mouse, plasma, ip, 10 mg/kg, plasma NCA, 10 mg/kg i.p., read-out: Cl/F_obs (converted)) was 188 mL/min/kg, the Vd/F ([1]; male, Swiss-Webster, mouse, plasma, ip, 10 mg/kg, plasma NCA, 10 mg/kg i.p., read-out: Vz/F_obs) was 83.3 L/kg and the half-life ([1]; male, Swiss-Webster, mouse, plasma, ip, 10 mg/kg, plasma NCA, 10 mg/kg i.p., read-out: t1/2 (converted)) was 308 min. For the same compound, the AUC(0-inf) ([1]; male, Swiss-Webster, mouse, plasma, ip, 10 mg/kg, plasma, 10 mg kg^-1 i.p., non-compartmental analysis, read-out: AUC 0–∞,p) was 888 ng·h/mL, the CL/F ([1]; male, Swiss-Webster, mouse, plasma, ip, 10 mg/kg, plasma, 10 mg kg^-1 i.p., non-compartmental analysis, read-out: CL/F (converted)) was 18.3 mL/min/kg and the Vd/F ([1]; male, Swiss-Webster, mouse, plasma, ip, 10 mg/kg, plasma, 10 mg kg^-1 i.p., non-compartmental analysis, read-out: V z /F) was 83 L/kg. For the same compound, the “Decline of mean brain level” value ([1]; over 24 hours, 10 mg kg^-1 i.p.) was 56%, the “AUMC 0-inf_obs” value ([1]; plasma NCA, 10 mg/kg i.p.) was 3814.94 ng/ml*h^2 and the Tlag ([1]; plasma NCA, 10 mg/kg i.p.) was 0 h. The “Maximal plasma concentration relative to those after nor-BNI and GNTI” value ([1]; same dose, 10 mg kg^-1 i.p.) was “less than 10%”, the “C max,brain,u” value ([1]; unbound brain, 10 mg kg^-1 i.p., in vivo brain binding assumed at least 3-fold greater than homogenate) was under 4 nM and the “Decline of mean plasma concentration from peak” value (“Decline … from peak” for short) ([1]; within 1 hour, 10 mg kg^-1 i.p.) was 37%. The “Decline … from peak” value ([1]; within 2 hours, 10 mg kg^-1 i.p.) was 77%, the “Decline … from peak” value ([1]; within 4 hours, 10 mg kg^-1 i.p.) was “at least 80%” and the fraction unbound at 5 h, 5 μM [2] was 0.19. For the same compound, the Papp A→B at 120 min, 5 μM (P-gp (human MDR1); pig (LLC-PK1 cells) transfected with human MDR1, LLC-PK1, apical to basolateral, 5 μM, 0.1% BSA, 120 min, n = 2) was 0.5 ×10⁻⁶ cm/s, the Papp B→A at 120 min, 5 μM (P-gp (human MDR1); pig (LLC-PK1 cells) transfected with human MDR1, LLC-PK1, basolateral to apical, 5 μM, 0.1% BSA, 120 min, n = 2) was 24 ×10⁻⁶ cm/s and the efflux ratio at 120 min, 5 μM (P-gp (human MDR1); pig (LLC-PK1 cells) transfected with human MDR1, LLC-PK1-MDR1 monolayers, read-out: Efflux ratio (B → A/A → B)) was 48. For the same compound, the “Active transport / P-gp-mediated efflux” value (human P-gp) was “showed P-gp-mediated efflux; also recorded: very high efflux ratio”, the Behavioral effects observed (mice) was “Only mild behavioral effects, such as hiccup-like spasms and shivering” and the Fatalities (mice) was “no fatalities”.

From publication PMC3411462, “Long-acting κ opioid antagonists nor-BNI, GNTI and JDTic: pharmacokinetics in mice and lipophilicity” (BMC Pharmacology, 2012)
